Laboratory results: patent US20220195386A1, “COMPOSITIONS AND METHODS FOR MAKING SENSORY NEURONS” (University of Georgia Research Foundation, Inc., priority 2020, published 2022)

Columns and labels:
[1] = test system: hESC-derived SNs; assay: Multi-electrode array (MEA) recording of SN firing after incubation with nociceptor agonists; type: cell-based, human; conditions: titrated, incubated for 1 min before data acquisition; 5 min recordings; normalized to untreated control (basal); FIG. 2K
Protocol: Experiments were performed using a Maestro Pro (Axion Biosystems) MEA system. CytoView MEA 96 plates containing 8 embedded electrodes/well were coated with PO/LM/FN 448 and seeded with NCCs (day 6 or 12) or SNs (day 30). Repeated recordings were made every 5 days at 37° C. with a sampling frequency of 12.5 kHz for 5 min. Recordings from at least 6 wells were averaged per reading. Bursts were detected using Inter-Spike Interval (ISI). Capsaicin, WIN 55,212 and Pregnenolone were titrated and incubated for 1 min before data acquisition. Hypoosomotic media was obtained by mixing Sensory neuron media with sterile water in a 45:55 ratio, treatment was done for 1 min.

[2] = test system: SNs differentiated from NCCs replated on day 12; assay: SN subtype enrichment with growth factors, TRKA/TRKB/TRKC quantified by flow cytometry (FACS) on day 20; type: cell-based, human; conditions: NCCs replated day 12 in SN differentiation media containing GDNF and the indicated growth factor; FACS analysis on day 20; FIG. 7B
Source text: FIGS. 7A-7G illustrates strategies for SN subtype enrichment (related to FIGS. 3A-3F). FIG. 7A is a schematic of an initial approach. On day 12 of differentiation, NCCs were replated using SN differentiation media containing GDNF and the indicated growth factors and analyzed by flow cytometry. FIG. 7B is a bar graph showing quantification of SNs differentiated using enrichment media as indicated on 7A. SNs were stained with TRKA, TRKB and TRKC antibodies and quantified by flow cytometry. DAPI was used as viability dye. FIGS. 7C-7F are a series of scatter plots showing identification (7C) of subpopulation of noci- (7D), mechano- (7E), and proprioceptor (7F) enrichment by flow cytometry. Side scatter and forward scatter showing gated areas where each subtype is enriched and the percentages of each subpopulation are shown. FIG. 7G is a bar graph showing NGN2 and NGN1 waves are present during SN differentiation. RNA from SN-biased NCCs was obtained on each indicated day and NGN1 and NGN2 expression was measured by RT-qPCR. In all experiments N>4. Graphs show mean±S.D.
Cells were dissociated with Accutase for 20 min and then washed in Flow buffer: DMEM 2% FBS and 1 mM L-glutamine. Cells were centrifuged at 200 g for 4 min and resuspended in cold PBS, they were counted and diluted to a concentration of 1×10^6 cells/100 μL and incubated for 20 min (CD49d) or 1 h (TRKA, B and C) with conjugated antibody. Cells were then washed twice in Flow buffer, and incubated with DAPI (1:1,000) in 300 μL of Flow buffer for 5 mins. Cells were filtered and transferred to a 96-well plate. Samples were run using a Cytoflex S (Beckman). All subsequent analysis was done using FlowJo.
Contrary to previous reports (Alshawaf, et al., Scientific Reports 8, 603 (2018), Chambers, et al., Nat. Biotechnol. 30, 715-720 (2012), Schrenk-Siemens, et al., Nat. Neurosci. 18, 10-550 16 (2015)), the investigated protocol generates all three SN subtypes (FIG. 1H, 1I). Thus, methods to enrich distinct SN subtypes from bulk cultures were investigated. […]

| Molecule | firing rate of SNs (MEA) [1] | SN subtype enrichment (TRKA, TRKB, TRKC by FACS) [2] |
| --- | --- | --- |
| Cc1c(C(=O)c2cccc3ccccc23)c2cccc3c2n1[C@H](CN1CCOCC1)CO3 [WIN 55, 212-2] | increased firing rate |  |
| COc1cc(CNC(=O)CCCC/C=C/C(C)C)ccc1O [capsaicin] | increased firing rate |  |
| NGF: Nerve growth factor, binds to TRKA; used to promote differentiation of nociceptors |  | no subtype enrichment |
| CC(=O)[C@H]1CC[C@H]2[C@@H]3CC=C4C[C@@H](O)CC[C@]4(C)[C@H]3CC[C@]12C [pregnenolone] | increased firing rate |  |
| BDNF: Brain-derived neurotrophic factor, binds to TRKB; used to promote differentiation of mechanoreceptors |  | no subtype enrichment |
| NT-3: Neurotrophin-3, binds to TRKC; used to promote differentiation of proprioceptors (protein, UniProt P20783 139-257, looked up) Neurotrophin-3: YAEHKSHRGEYSVCDSESLWVTDKSSAIDIRGHQVTVLGEIKTGNSPVKQYFYETRCKEARPVKNGCRGIDDKHWNSQCKTSQTYVRALTSENNKLVGWRWIRIDTSCVCALSRKIGRT |  | no subtype enrichment |
